Experimental data: PubChem BioAssay AID1259407 (Chemical Carcinogenesis Research Information System (CCRIS), 2018)
Activity calls are given as the source filed them. The rule behind the calls is not given here.

System: CCRIS mutagenicity, Ames/micronucleus/aberration tests
Assay: CCRIS mutagenicity studies
[1] = Test System: AMES SALMONELLA TYPHIMURIUM, Strain/Indicator: TA98, Metabolic Activation: NONE, Method: STANDARD PLATE
[2] = Test System: AMES SALMONELLA TYPHIMURIUM, Strain/Indicator: TA98, Metabolic Activation: RAT, LIVER, S-9, Method: STANDARD PLATE
[3] = Test System: AMES SALMONELLA TYPHIMURIUM, Strain/Indicator: TA100, Metabolic Activation: NONE, Method: STANDARD PLATE
[4] = Test System: AMES SALMONELLA TYPHIMURIUM, Strain/Indicator: TA100, Metabolic Activation: RAT, LIVER, S-9, Method: STANDARD PLATE
[5] = Test System: AMES SALMONELLA TYPHIMURIUM, Strain/Indicator: TA1535, Metabolic Activation: NONE, Method: STANDARD PLATE
[6] = Test System: AMES SALMONELLA TYPHIMURIUM, Strain/Indicator: TA1537, Metabolic Activation: NONE, Method: STANDARD PLATE

## CC1=CCC(O)(C(C)C)CC1 (stereo not drawn)
[1]
  mutagenic call: inactive; negative
[2]
  mutagenic call: inactive; negative
[3]
  mutagenic call: inactive; negative
[4]
  mutagenic call: inactive; negative
Test System: AMES SALMONELLA TYPHIMURIUM, Strain/Indicator: TA102, Metabolic Activation: NONE, Method: STANDARD PLATE
  mutagenic call: inactive; negative
Test System: AMES SALMONELLA TYPHIMURIUM, Strain/Indicator: TA102, Metabolic Activation: RAT, LIVER, S-9, Method: STANDARD PLATE
  mutagenic call: inactive; negative

## c1ccc2c(c1)c1c(c3c4ccccc4c4ccccc4c23)O1
Test System: AMES SALMONELLA TYPHIMURIUM, Strain/Indicator: TA98, Metabolic Activation: NONE, Method: PREINCUBATION (KCL-CONTAINING MEDIUM)
  mutagenic call: active; positive
Test System: AMES SALMONELLA TYPHIMURIUM, Strain/Indicator: TA98, Metabolic Activation: NONE, Method: PREINCUBATION (KCL-FREE MEDIUM)
  mutagenic call: active; positive
Test System: AMES SALMONELLA TYPHIMURIUM, Strain/Indicator: TA100, Metabolic Activation: NONE, Method: PREINCUBATION (KCL-FREE OR KCL-CONTAINING MEDIA)
  mutagenic call: active; positive

## OC[C@H]1OC(O[C@H]2[C@H](O)[C@@H](O)C(O[C@H]3[C@H](O)[C@@H](O)[C@@H](O)O[C@@H]3CO)O[C@@H]2CO)[C@H](O)[C@@H](O)[C@@H]1O (stereo partly drawn)
[1]
  mutagenic call: inactive; negative
[2]
  mutagenic call: inactive; negative
[3]
  mutagenic call: inactive; negative
[4]
  mutagenic call: inactive; negative
[5]
  mutagenic call: inactive; negative
Test System: AMES SALMONELLA TYPHIMURIUM, Strain/Indicator: TA1535, Metabolic Activation: RAT, LIVER, S-9, Method: STANDARD PLATE
  mutagenic call: inactive; negative
[6]
  mutagenic call: inactive; negative
Test System: AMES SALMONELLA TYPHIMURIUM, Strain/Indicator: TA1537, Metabolic Activation: RAT, LIVER, S-9, Method: STANDARD PLATE
  mutagenic call: inactive; negative
Test System: E. COLI, Strain/Indicator: WP2 UVRA, Metabolic Activation: NONE, Method: STANDARD PLATE
  mutagenic call: inactive; negative
Test System: E. COLI, Strain/Indicator: WP2 UVRA, Metabolic Activation: RAT, LIVER, S-9, Method: STANDARD PLATE
  mutagenic call: inactive; negative

## CN(Cc1ccc(C#N)cc1)N=O
Test System: AMES SALMONELLA TYPHIMURIUM, Strain/Indicator: TA1535, Metabolic Activation: HAMSTER, LIVER, S-9, AROCLOR 1254, Method: STANDARD PLATE
  mutagenic call: active; positive
[5]
  mutagenic call: inactive; negative

## Cc1ccccc1OP(=O)(Oc1ccccc1C)Oc1ccccc1C
[3]
  mutagenic call: inactive; negative
Test System: AMES SALMONELLA TYPHIMURIUM, Strain/Indicator: TA100, Metabolic Activation: RAT, LIVER, MICROSOMES, Method: STANDARD PLATE
  mutagenic call: active; positive

## C[C@]12CCC(=O)C=C1CC[C@@H]1[C@@H]2CC[C@]2(C)C(=O)CC[C@@H]12
End Point: In vivo micronucleus, Test System: Micronucleated bone marrow polychromatic erythrocytes, Species: Rat, Strain/Sex: F344/N / Male, Route: Oral
  mutagenic call: inactive; negative
End Point: In vivo micronucleus, Test System: Micronucleated normochromatic erythrocytes in peripheral blood, Species: Mouse, Strain/Sex: B6C3F1/Female, Route: Oral
  mutagenic call: inactive; negative. (the response was judged equivocal based on a statistically significan
End Point: In vivo micronucleus, Test System: Micronucleated normochromatic erythrocytes in peripheral blood, Species: Mouse, Strain/Sex: B6C3F1/Male, Route: Oral
  mutagenic call: inactive; negative
Test System: Ames Salmonella typhimurium, Strain/Indicator: TA97, Metabolic Activation: Hamster, Liver, S-9, Aroclor 1254 (10%), Method: Preincubation
  mutagenic call: inactive; negative
Test System: Ames Salmonella typhimurium, Strain/Indicator: TA97, Metabolic Activation: Hamster, Liver, S-9, Aroclor 1254 (30%), Method: Preincubation
  mutagenic call: inactive; negative
Test System: Ames Salmonella typhimurium, Strain/Indicator: TA97, Metabolic Activation: None, Method: Preincubation
  mutagenic call: inactive; negative
Test System: Ames Salmonella typhimurium, Strain/Indicator: TA97, Metabolic Activation: Rat, Liver, S-9, Aroclor 1254 (10%), Method: Preincubation
  mutagenic call: inactive; negative
Test System: Ames Salmonella typhimurium, Strain/Indicator: TA97, Metabolic Activation: Rat, Liver, S-9, Aroclor 1254 (30%), Method: Preincubation
  mutagenic call: inactive; negative
Test System: Ames Salmonella typhimurium, Strain/Indicator: TA98, Metabolic Activation: Hamster, Liver, S-9, Aroclor 1254 (10%), Method: Preincubation
  mutagenic call: inactive; negative
Test System: Ames Salmonella typhimurium, Strain/Indicator: TA98, Metabolic Activation: Hamster, Liver, S-9, Aroclor 1254 (30%), Method: Preincubation
  mutagenic call: inactive; negative
Test System: Ames Salmonella typhimurium, Strain/Indicator: TA98, Metabolic Activation: None, Method: Preincubation
  mutagenic call: inactive; negative
Test System: Ames Salmonella typhimurium, Strain/Indicator: TA98, Metabolic Activation: Rat, Liver, S-9, Aroclor 1254 (10%), Method: Preincubation
  mutagenic call: inactive; negative
Test System: Ames Salmonella typhimurium, Strain/Indicator: TA98, Metabolic Activation: Rat, Liver, S-9, Aroclor 1254 (30%), Method: Preincubation
  mutagenic call: inactive; negative
Test System: Ames Salmonella typhimurium, Strain/Indicator: TA100, Metabolic Activation: Hamster, Liver, S-9, Aroclor 1254 (10%), Method: Preincubation
  mutagenic call: inactive; negative
Test System: Ames Salmonella typhimurium, Strain/Indicator: TA100, Metabolic Activation: Hamster, Liver, S-9, Aroclor 1254 (30%), Method: Preincubation
  mutagenic call: inactive; negative
Test System: Ames Salmonella typhimurium, Strain/Indicator: TA100, Metabolic Activation: None, Method: Preincubation
  mutagenic call: inactive; negative
Test System: Ames Salmonella typhimurium, Strain/Indicator: TA100, Metabolic Activation: Rat, Liver, S-9, Aroclor 1254 (10%), Method: Preincubation
  mutagenic call: inactive; negative
Test System: Ames Salmonella typhimurium, Strain/Indicator: TA100, Metabolic Activation: Rat, Liver, S-9, Aroclor 1254 (30%), Method: Preincubation
  mutagenic call: inactive; negative
Test System: Ames Salmonella typhimurium, Strain/Indicator: TA1535, Metabolic Activation: Hamster, Liver, S-9, Aroclor 1254 (10%), Method: Preincubation
  mutagenic call: inactive; negative
Test System: Ames Salmonella typhimurium, Strain/Indicator: TA1535, Metabolic Activation: Hamster, Liver, S-9, Aroclor 1254 (30%), Method: Preincubation
  mutagenic call: inactive; negative
Test System: Ames Salmonella typhimurium, Strain/Indicator: TA1535, Metabolic Activation: None, Method: Preincubation
  mutagenic call: inactive; negative
Test System: Ames Salmonella typhimurium, Strain/Indicator: TA1535, Metabolic Activation: Rat, Liver, S-9, Aroclor 1254 (10%), Method: Preincubation
  mutagenic call: inactive; negative
Test System: Ames Salmonella typhimurium, Strain/Indicator: TA1535, Metabolic Activation: Rat, Liver, S-9, Aroclor 1254 (30%), Method: Preincubation
  mutagenic call: inactive; negative
Test System: E. coli, Strain/Indicator: WP2 uvrA/pKM101, Metabolic Activation: None, Method: Preincubation
  mutagenic call: inactive; negative
Test System: E. coli, Strain/Indicator: WP2 uvrA/pKM101, Metabolic Activation: Rat, Liver, S-9, Aroclor 1254 (10%), Method: Preincubation
  mutagenic call: inactive; negative

## COc1ccc2c(CBr)cc(=O)oc2c1
Test System: AMES SALMONELLA TYPHIMURIUM, Strain/Indicator: TA98, Metabolic Activation: NONE, Method: PREINCUBATION
  mutagenic call: inactive; negative
Test System: AMES SALMONELLA TYPHIMURIUM, Strain/Indicator: TA98, Metabolic Activation: RAT, LIVER, S-9, PCB, Method: PREINCUBATION
  mutagenic call: inactive; negative
Test System: AMES SALMONELLA TYPHIMURIUM, Strain/Indicator: TA100, Metabolic Activation: NONE, Method: PREINCUBATION
  mutagenic call: inactive; negative
Test System: AMES SALMONELLA TYPHIMURIUM, Strain/Indicator: TA100, Metabolic Activation: RAT, LIVER, S-9, PCB, Method: PREINCUBATION
  mutagenic call: inactive; negative
Test System: E. COLI, Strain/Indicator: WP2 UVRA, Metabolic Activation: NONE, Method: PREINCUBATION
  mutagenic call: inactive; negative

## N[C@@H]1C[C@H]1c1ccccc1
[1]
  mutagenic call: inactive; negative
Test System: AMES SALMONELLA TYPHIMURIUM, Strain/Indicator: TA98, Metabolic Activation: RAT, LIVER, S-9, AROCLOR 1254, Method: STANDARD PLATE
  mutagenic call: inactive; negative
[3]
  mutagenic call: inactive; negative
Test System: AMES SALMONELLA TYPHIMURIUM, Strain/Indicator: TA100, Metabolic Activation: RAT, LIVER, S-9, AROCLOR 1254, Method: STANDARD PLATE
  mutagenic call: inactive; negative
[5]
  mutagenic call: inactive; negative
Test System: AMES SALMONELLA TYPHIMURIUM, Strain/Indicator: TA1535, Metabolic Activation: RAT, LIVER, S-9, AROCLOR 1254, Method: STANDARD PLATE
  mutagenic call: inactive; negative
[6]
  mutagenic call: inactive; negative
Test System: AMES SALMONELLA TYPHIMURIUM, Strain/Indicator: TA1537, Metabolic Activation: RAT, LIVER, S-9, AROCLOR 1254, Method: STANDARD PLATE
  mutagenic call: inactive; negative

## Nc1ccc2c(O)cc(S(=O)(=O)O)cc2c1
End Point: IN VITRO CHROMOSOMAL ABERRATIONS, Test System: CHL CELLS, Metabolic Activation: NONE
  mutagenic call: inactive; negative
End Point: IN VITRO CHROMOSOMAL ABERRATIONS, Test System: CHL CELLS, Metabolic Activation: RAT, LIVER, S-9, SODIUM PHENOBARBITAL AND 5,6-BENZOFLAVONE
  mutagenic call: active; positive
